Data: patent US20230089073A1 (Carmot Therapeutics, Inc., priority 2021, published 2023)

Each compound was assayed against T1, human GLP-1 receptor (Homo sapiens, UniProt P43220) (assay: GLP-1R cAMP Assay). Conditions: cAMP accumulation in CHO cells stably overexpressing the human GLP-1 receptor; 30 min treatment; HitHunter cAMP kit; read-out: EC50.
T1 construct: expressed in transfected cells
Type: cell-based
In short: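 CHO cells stably overexpressing human GLP-1R, 10,000 cells/well, treated with compound in 20-point dose response in triplicate for 30 min. cAMP accumulation read by enzyme-complementation luminescence after lysis and overnight incubation; dose-response curves fitted.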

T1 sequence (P43220 24-463): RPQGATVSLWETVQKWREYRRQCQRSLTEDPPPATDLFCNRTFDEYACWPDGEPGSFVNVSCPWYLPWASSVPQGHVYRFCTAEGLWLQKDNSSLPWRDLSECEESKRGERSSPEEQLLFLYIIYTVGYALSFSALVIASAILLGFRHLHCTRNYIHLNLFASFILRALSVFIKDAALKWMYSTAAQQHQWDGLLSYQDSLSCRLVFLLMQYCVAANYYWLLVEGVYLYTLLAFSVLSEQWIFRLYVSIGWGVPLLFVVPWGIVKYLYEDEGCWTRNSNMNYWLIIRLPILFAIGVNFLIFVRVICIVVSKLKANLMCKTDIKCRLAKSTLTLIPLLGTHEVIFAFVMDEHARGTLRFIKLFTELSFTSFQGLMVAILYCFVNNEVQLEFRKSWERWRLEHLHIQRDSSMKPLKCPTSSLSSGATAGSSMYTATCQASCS

Row | Structure (SMILES) | EC50 [nM]
1 | O=C(O)c1ccc2nc(CN3CCC(Cc4ccc(COc5ccc(Cl)cc5Cl)o4)CC3)n(C[C@@H]3CCO3)c2c1 [Example 72, (S)-2-((4-((5-((2,4-Dichlorophenoxy)methyl)furan-2-yl)methyl)piperidin-1-yl)methyl)-1-(oxetan-2-ylmethyl)-1H-benzo[d]imidazole-6-carboxylic acid] | < 50
2 | O=C(O)c1ccc2nc(CN3CCC(Oc4ccnc(COc5ccc(F)cc5Cl)n4)CC3)n(C[C@@H]3CCO3)c2n1 [Compound 370] | < 50
3 | N#Cc1cc(F)c(OCc2nccc(OC3CCN(Cc4nc5ccc(C(=O)O)cc5n4C[C@@H]4CCO4)CC3)n2)cc1F [Example 498, (S)-2-((4-((2-((4-Cyano-2,5-difluorophenoxy)methyl)pyrimidin-4-yl)oxy)piperidin-1-yl)methyl)-1-(oxetan-2-ylmethyl)-1H-benzo[d]imidazole-6-carboxylic acid] | < 50
4 | C[C@H]1C[C@@H](Oc2cccc(COc3ccc(Cl)cc3F)n2)CCN1Cc1nc2ccc(C(=O)O)cc2n1C[C@@H]1CCO1 [Compound 291, 2-{[(2S,4S)-4-({6-[(4-chloro-2-fluorophenoxy)methyl]pyridin-2-yl}oxy)-2-methylpiperidin-1-yl]methyl}-1-{[(2S)-oxetan-2-yl]methyl}-1H-1,3-benzodiazole-6-carboxylic acid] | < 50
5 | O=C(O)c1ccc2nc(CN3CCC(Oc4ccnc(COc5ccc(Cl)cc5F)n4)CC3)n(C[C@@H]3CCO3)c2c1 [Compound 296, 2-{[4-({2-[(4-chloro-2-fluorophenoxy)methyl]pyrimidin-4-yl}oxy)piperidin-1-yl]methyl}-1-{[(2S)-oxetan-2-yl]methyl}-1H-1,3-benzodiazole-6-carboxylic acid] | < 50
6 | O=C(O)c1cc(F)c2nc(CN3CCC(Oc4cccc(COc5ccc(C(F)F)cc5F)c4)CC3)n(CC3(CF)CC3)c2c1 [Compound 303] | < 50
7 | N#Cc1ccc(OCc2nc(OC3CCN(Cc4nc5ccc(C(=O)O)cc5n4C[C@@H]4CCO4)CC3)ccc2F)c(F)c1 [Compound 347] | < 50
8 | Cc1ccc(N(C)c2cccc(CC3CCN(Cc4nc5ccc(C(=O)O)cc5n4C[C@@H]4CCO4)CC3)c2)c(Cl)c1 [Example 116, (S)-2-((4-(3-((2-Chloro-4-methylphenyl)(methyl)amino)benzyl)piperidin-1-yl)methyl)-1-(oxetan-2-ylmethyl)-1H-benzo[d]imidazole-6-carboxylic acid] | < 50
9 | Clc1ccc(COc2cccc(C3=CCN(Cc4ccc(-c5nn[nH]n5)nc4)CC3)n2)c(Cl)c1 [Example 110, 1′-((6-(2H-Tetrazol-5-yl)pyridin-3-yl)methyl)-6-((2,4-dichlorobenzyl)oxy)-1′,2′,3′,6′-tetrahydro-2,4′-bipyridine] | 50 to 500
10 | N#Cc1cc(F)ccc1OCc1cccc(CC2CCN(Cc3nc4ccc(C(=O)O)cc4n3C[C@@H]3CCO3)CC2)c1 [Compound 187, 2-{[4-({3-[(2-cyano-4-fluorophenoxy)methyl]phenyl}methyl)piperidin-1-yl]methyl}-1-{[(2S)-oxetan-2-yl]methyl}-1H-1,3-benzodiazole-6-carboxylic acid] | < 50
11 | CCn1cncc1Cn1c(CN2CCC(Cc3cnc(COc4ccc(Cl)cc4Cl)o3)CC2)nc2ccc(C(=O)O)nc21 [Compound 125, 2-{[4-({2-[(2,4-dichlorophenoxy)methyl]-1,3-oxazol-5-yl}methyl)piperidin-1-yl]methyl}-3-[(1-ethyl-1H-imidazol-5-yl)methyl]-3H-imidazol[4,5-b]pyridine-5-carboxylic acid] | < 50
12 | N#Cc1cc(F)ccc1OCc1cccc(OC2CCN(Cc3nc4ccc(C(=O)O)cc4n3C[C@@H]3CCO3)CC2)c1 [Example 206, (S)-2-((4-(3-((2-Cyano-4-fluorophenoxy)methyl)phenoxy)piperidin-1-yl)methyl)-1-(oxetan-2-ylmethyl)-1H-benzo[d]imidazole-6-carboxylic acid] | < 50
13 | CCn1cncc1Cn1c(CN2CCN(C(=O)c3cnc(COc4ccc(Cl)cc4Cl)o3)C[C@@H]2C)nc2ccc(C(=O)O)cc21 [Compound 256, 2-{[(2S)-4-{2-[(2,4-dichlorophenoxy)methyl]-1,3-oxazole-5-carbonyl}-2-methylpiperazin-1-yl]methyl}-1-[(1-ethyl-1H-imidazol-5-yl)methyl]-1H-1,3-benzodiazole-6-carboxylic acid] | < 50
14 | O=C(O)c1ccc2nc(CN3CCC(Oc4cccc(COc5ccc(Cl)cc5Cl)c4)CC3)n(Cc3cnco3)c2c1 [Example 216, 2-((4-(3-((2,4-Dichlorophenoxy)methyl)phenoxy)piperidin-1-yl)methyl)-1-(oxazol-5-ylmethyl)-1H-benzo[d]imidazole-6-carboxylic acid] | < 50
15 | Cc1ccc(OCc2ccc(F)c(CC3CCN(Cc4nc5ccc(C(=O)O)cc5n4C[C@@H]4CCO4)CC3)n2)c(Cl)c1 [Compound 123, 2-{[4-({6-[(2-chloro-4-methylphenoxy)methyl]-3-fluoropyridin-2-yl}methyl)piperidin-1-yl]methyl}-1-{[(2S)-oxetan-2-yl]methyl}-1H-1,3-benzodiazole-6-carboxylic acid] | < 50
16 | C[C@H]1C[C@@H](Oc2ccnc(COc3ccc(Cl)cc3C#N)n2)CCN1Cc1nc2ccc(C(=O)O)cc2n1C[C@@H]1CCO1 [Compound 489, 2-{[(2S,4S)-4-({2-[(4-chloro-2-cyanophenoxy)methyl]pyrimidin-4-yl}oxy)-2-methylpiperidin-1-yl]methyl}-1-{[(2S)-oxetan-2-yl]methyl}-1H-1,3-benzodiazole-6-carboxylic acid] | < 50
17 | O=C(O)c1ccc2nc(CN3CCc4[nH]c5ccc(OCc6ccc(Cl)cc6Cl)cc5c4C3)n(C[C@@H]3CCO3)c2c1 [Compound 142, 2-({8-[(2,4-dichlorophenyl)methoxy]-1H,2H,3H,4H,5H-pyrido[4,3-b]indol-2-yl}methyl)-1-{[(2S)-oxetan-2-yl]methyl}-1H-1,3-benzodiazole-6-carboxylic acid] | > 500
18 | Cc1ccc(OCc2ccc(C(=O)N3CCN(Cc4nc5ccc(C(=O)O)cc5n4C[C@@H]4CCO4)CC3)o2)c(C)c1 [Compound 41, 2-[(4-{5-[(2,4-dimethylphenoxy)methyl]furan-2-carbonyl}piperazin-1-yl)methyl]-1-{[(2S)-oxetan-2-yl]methyl}-1H-1,3-benzodiazole-6-carboxylic acid] | 50 to 500
19 | Cc1ccc(S(=O)(=O)Nc2cccc(C(=O)N3CCN(Cc4nc5ccc(C(=O)O)cc5n4C[C@@H]4CCO4)CC3)c2)cc1 [Compound 70, 2-({4-[3-(4-methylbenzenesulfonamido)benzoyl]piperazin-1-yl}methyl)-1-{[(2S)-oxetan-2-yl]methyl}-1H-1,3-benzodiazole-6-carboxylic acid] | > 500
20 | O=C(O)c1ccc2nc(CN3CCC(Cc4cccc(COc5ccc(Cl)cc5Cl)c4F)CC3)n(C[C@@H]3CCO3)c2c1 [Compound 135, 2-{[4-({3-[(2,4-dichlorophenoxy)methyl]-2-fluorophenyl}methyl)piperidin-1-yl]methyl}-1-{[(2S)-oxetan-2-yl]methyl}-1H-1,3-benzodiazole-6-carboxylic acid] | 50 to 500
21 | O=C(O)c1ccc2nc(CN3CCC(Oc4ccnc(COc5ccc(F)cc5C(F)(F)F)n4)CC3)n(C[C@@H]3CCO3)c2c1 [Compound 342] | < 50
22 | N#Cc1cc(Cl)ccc1OCc1cccc(CC2CCN(Cc3nc4ccc(C(=O)O)cc4n3C[C@H]3CCOC3)CC2)c1 [Compound 158, 2-{[4-({3-[(4-chloro-2-cyanophenoxy)methyl]phenyl}methyl)piperidin-1-yl]methyl}-1-{[(3R)-oxolan-3-yl]methyl}-1H-1,3-benzodiazole-6-carboxylic acid] | < 50
23 | N#Cc1cc(Cl)ccc1OCc1cccc(CC2CCN(Cc3nc4ccc(C(=O)O)cc4n3Cc3ncco3)CC2)c1 [Compound 159, 2-{[4-({3-[(4-chloro-2-cyanophenoxy)methyl]phenyl}methyl)piperidin-1-yl]methyl}-1-[(1,3-oxazol-2-yl)methyl]-1H-1,3-benzodiazole-6-carboxylic acid] | < 50
24 | CCn1cncc1Cn1c(CN2CCN(C(=O)c3ccc(COc4ccc(Cl)cc4Cl)o3)CC2)nc2ccc(C(=O)O)cc21 [Compound 47, 2-[(4-{5-[(2,4-dichlorophenoxy)methyl]furan-2-carbonyl}piperazin-1-yl)methyl]-1-[(1-ethyl-1H-imidazol-5-yl)methyl]-1H-1,3-benzodiazole-6-carboxylic acid] | < 50
25 | CCn1cncc1Cn1c(CN2CCN(C(=O)c3cccc(CNc4ccc(C)cc4Cl)c3)CC2)nc2ccc(C(=O)O)cc21 [Compound 79, 2-{[4-(3-{[(2-chloro-4-methylphenyl)amino]methyl}benzoyl)piperazin-1-yl]methyl}-1-[(1-ethyl-1H-imidazol-5-yl)methyl]-1H-1,3-benzodiazole-6-carboxylic acid] | > 500
26 | C[C@H]1C[C@@H](Oc2ccnc(COc3ccc(C#N)cc3F)n2)CCN1Cc1nc2ncc(C(=O)O)cc2n1C[C@@H]1CCO1 [Compound 513, 2-{[(2S,4S)-4-({2-[(4-cyano-2-fluorophenoxy)methyl]pyrimidin-4-yl}oxy)-2-methylpiperidin-1-yl]methyl}-1-{[(2S)-oxetan-2-yl]methyl}-1H-imidazo[4,5-b]pyridine-6-carboxylic acid] | < 50
27 | O=C(O)c1ccc2nc(CN3CCC(Cc4cnc(COc5cnc(C6CC6)cc5Cl)o4)CC3)n(C[C@@H]3CCO3)c2c1 [Example 154, (S)-2-((4-((2-(((4-Chloro-6-cyclopropylpyridin-3-yl)oxy)methyl)oxazol-5-yl)methyl)piperidin-1-yl)methyl)-1-(oxetan-2-ylmethyl)-1H-benzo[d]imidazole-6-carboxylic acid] | 50 to 500
28 | O=C(O)c1ccc2nc(CN3CCN(C(=O)c4ccc(COc5ccc(Cl)cc5F)o4)CC3)n(C[C@@H]3CCO3)c2c1 [Example 36, (S)-2-((4-(5-((4-Chloro-2-fluorophenoxy)methyl)furan-2-carbonyl)-piperazin-1-yl)methyl)-1-(oxetan-2-ylmethyl)-1H-benzo[d]imidazole-6-carboxylic acid] | > 500
